Test system: functional connectivity of brain networks (DMN, visual network)
Test: resting state BOLD-fMRI functional connectivity
Assay type: in vivo, human
Conditions: post dose versus baseline
Method: This example describes the fMRI analysis performed in the context of the study in Example 3. Simultaneous with the dynamic PET described in example 3 above, MRI data were acquired using a resting state BOLD-fMRI (rs-fMRI) protocol. In the following section, the methodology and results of the analysis of these MRI data are presented.
Resting state BOLD-fMRI data were acquired according to the following protocol: For the analysis of the rs-fMRI scans, all data were converted to the BIDS format for processing with the CONN toolbox (release 19c).
The following preprocessing steps were performed: • Slice timing correction: Temporal misalignment between different slices of the rs-fMRI scans, due to the sequential nature of the fMRI acquisition, is corrected by applying an appropriate timeshift to match the actual acquisition time • Realignment: RS-fMRI data were realigned where all scans were coregistered to the first scan of the first session. This way, potential susceptibility distortion-by-motion interactions were also addressed by estimating the derivatives of the deformation field with respect to head movement, and resampling the functional data to match the deformation field of the reference image. • Outlier detection: Potential outlier scans were identified from the observed global BOLD signal and the amount of subject-motion in the scanner. […]

For O=C1C[C@H](c2cc(F)c(F)c(F)c2)CN1Cn1ncnc1Cl [compound of example 1, (4R)-1-[(5-chloro-1H-1,2,4-triazol-1-yl)methyl]-4-(3,4,5-trifluorophenyl)pyrrolidin-2-one], the “connectivity in the DMN (seed IC12)” value (low doses (all four individuals at 1 and 2 mg)) was “modulate and enhance connectivity in the DMN” and the “connectivity between IC18 (Visual network) and auditory network” value (relatively low occupancy levels) was “increased”.

From patent US20240325353A1, “COMPOUND FOR TREATMENT OF COGNITIVE DISORDERS” (Syndesi Therapeutics SA, priority 2021, published 2024)
